Measured values: ChEMBL document CHEMBL1127314, “A new potent and selective histamine H3 receptor agonist, 4-(1H-imidazol-4-ylmethyl)piperidine” (J Med Chem, 1994)

Columns and labels:
[1] = pD2 value was determined on jejunum preparations of eight different animals; type: ADME, tissue-based
[2] = biological target: Histamine H3 receptor (Cavia porcellus) (UniProt Q9JI35); experiment: H3 receptor agonistic activity of the compound; type: functional
[3] = biological target: Histamine H3 receptor (Cavia porcellus) (UniProt Q9JI35); experiment: KL value determined on H3 receptor
[4] = pKi log value determined for the guinea pig H1 receptor; type: ADME

Chain of Histamine H3 receptor (Cavia porcellus) (Q9JI35 whole entry): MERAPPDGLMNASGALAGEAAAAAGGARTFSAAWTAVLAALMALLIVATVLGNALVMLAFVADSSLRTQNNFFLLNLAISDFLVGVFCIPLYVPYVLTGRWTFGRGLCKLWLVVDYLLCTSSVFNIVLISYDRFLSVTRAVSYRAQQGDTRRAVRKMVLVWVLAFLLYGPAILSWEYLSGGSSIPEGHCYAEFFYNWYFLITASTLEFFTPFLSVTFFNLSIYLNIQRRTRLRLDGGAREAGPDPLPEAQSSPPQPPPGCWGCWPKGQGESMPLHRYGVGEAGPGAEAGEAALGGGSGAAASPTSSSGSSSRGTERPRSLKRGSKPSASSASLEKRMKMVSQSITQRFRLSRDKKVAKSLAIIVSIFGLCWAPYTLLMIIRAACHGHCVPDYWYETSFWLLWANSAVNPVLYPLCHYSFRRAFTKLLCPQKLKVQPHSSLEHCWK

| SMILES | pD2 [1] | KH [2] [nM] | KL [3] [µM] | Log Ki [4] |
| --- | --- | --- | --- | --- |
| C[C@@H](N)Cc1c[nH]cn1 | 7.8 | 4.3 | 0.22 |  |
| c1nc(CC2CCNCC2)c[nH]1 [IMMEPIP] | 8 | 2.7 | 1.01 | -4.79 |
